Assay results: PMC5681660, “Reduced hepatitis B and D viral entry using clinically applied drugs as novel inhibitors of the bile acid transporter NTCP” (Scientific Reports, 2017)
Structures can show the parent of a compound that is named as a salt. Where two headings read alike, the source gives them in different places.

Key:
human NTCP [1] = molecular target: T1, human NTCP (Homo sapiens, UniProt Q14973); assay: Screening fluorescent competitive Myrcludex B-FITC binding assay (96-well, 10 µM drug)
T1 sequence (Q14973 1-349): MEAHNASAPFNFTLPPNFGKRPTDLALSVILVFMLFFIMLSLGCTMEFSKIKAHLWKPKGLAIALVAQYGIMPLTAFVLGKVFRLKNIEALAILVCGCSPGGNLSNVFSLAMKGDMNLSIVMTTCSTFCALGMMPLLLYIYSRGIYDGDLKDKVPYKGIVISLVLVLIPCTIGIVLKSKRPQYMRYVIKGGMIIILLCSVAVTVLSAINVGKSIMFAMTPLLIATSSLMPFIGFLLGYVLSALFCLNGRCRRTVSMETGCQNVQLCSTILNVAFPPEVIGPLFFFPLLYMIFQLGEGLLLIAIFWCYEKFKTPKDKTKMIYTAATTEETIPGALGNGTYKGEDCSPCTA

human NTCP [2] = molecular target: T1, human NTCP; assay: Screening taurocholate uptake assay (96-well, [14C]taurocholate, 10 µM drug)
[3] = Prestwick library screen, Myrcludex B-FITC binding, 10 µM drug
[4] = Prestwick library screen, taurocholate uptake, 10 µM drug
[5] = ranking score beside the functional and binding assay B-scores of the screen
[6] = screen, 10 µM drug, Myrcludex B-FITC binding
[7] = combined ranking from functional and binding screening assays
[8] = screen, 10 µM drug, taurocholate uptake
[9] = Prestwick library screen, 10 µM drug, B-score of Myrcludex B-FITC binding
[10] = Prestwick library screen, 10 µM drug, B-score of taurocholate uptake
[11] = combined ranking from functional and binding assay B-scores

O=C(CCCN1CC=C(n2c(=O)[nH]c3ccccc32)CC1)c1ccc(F)cc1 [Droperidol]
B-score binding assay (human NTCP [1]; [3]): 0.092
B-score functional assay (human NTCP [2]; [4]): 0.035
Ranking score (human NTCP [2]; [5]): 713.526

CC[N+](C)(C)c1cccc(O)c1 [Edrophonium chloride]
B-score binding assay (human NTCP [1]; [6]): 0.083
Ranking score (human NTCP [2]; [7]): 420.888
B-score functional assay (human NTCP [2]; [8]): -1.061

CCOC(=O)[C@H](CCc1ccccc1)N[C@@H](C)C(=O)N1CCC[C@H]1C(=O)O [Enalapril maleate]
B-score binding assay (human NTCP [1]; [3]): 0.03
B-score functional assay (human NTCP [2]; [4]): 0.08
Ranking score (human NTCP [2]; [5]): 705.002

C[C@H](N[C@@H](CCc1ccccc1)C(=O)O)C(=O)N1CCC[C@H]1C(=O)O.O.O [Enalaprilat dihydrate]
B-score binding assay (human NTCP [1]; [3]): 0.874
B-score functional assay (human NTCP [2]; [4]): 0.051
Ranking score (human NTCP [2]; [5]): 844.248

CCn1cc(C(=O)O)c(=O)c2cc(F)c(N3CCNCC3)nc21 [Enoxacin]
B-score binding assay (human NTCP [1]; [9]): 0.523
B-score functional assay (human NTCP [2]; [10]): 3.277
Ranking score (human NTCP [2]; [11]): 1072.03

CCN1CCN(c2cc3c(cc2F)c(=O)c(C(=O)O)cn3C2CC2)CC1 [Enrofloxacin]
B-score binding assay (human NTCP [1]; [3]): 0.083
B-score functional assay (human NTCP [2]; [4]): 0.028
Ranking score (human NTCP [2]; [5]): 706.109

CCN(CC)C(=O)/C(C#N)=C/c1cc(O)c(O)c([N+](=O)[O-])c1 [Entacapone]
B-score binding assay (human NTCP [1]; [6]): -0.647
Ranking score (human NTCP [2]; [7]): 366.148
B-score functional assay (human NTCP [2]; [8]): -0.441

C[C@]12CC[C@H](O)C[C@@H]1CC[C@@H]1[C@@H]2CC[C@]2(C)C(=O)CC[C@@H]12 [Epiandrosterone]
B-score binding assay (human NTCP [1]): 2.961
B-score functional assay (human NTCP [2]): 2.177
Ranking score (human NTCP [2]): 1232.82

COc1cccc2c1C(=O)c1c(O)c3c(c(O)c1C2=O)C[C@@](O)(C(=O)CO)C[C@@H]3O[C@H]1C[C@H](N)[C@@H](O)[C@H](C)O1 [Epirubicin hydrochloride]
B-score binding assay (human NTCP [1]): 1.555
B-score functional assay (human NTCP [2]): 0.079
Ranking score (human NTCP [2]): 915.844

C[C@]12C[C@H]3S[C@H]3C[C@@H]1CC[C@@H]1[C@@H]2CC[C@]2(C)[C@@H](O)CC[C@@H]12 [Epitiostanol]
B-score binding assay (human NTCP [1]): 0.911
B-score functional assay (human NTCP [2]): 0.926
Ranking score (human NTCP [2]): 1032.88

CC[C@H]1OC(=O)[C@H](C)[C@@H](O[C@H]2C[C@@](C)(OC)[C@@H](O)[C@H](C)O2)[C@H](C)[C@@H](O[C@@H]2O[C@H](C)C[C@H](N(C)C)[C@H]2O)[C@](C)(O)C[C@@H](C)C(=O)[C@H](C)[C@@H](O)[C@]1(C)O [Erythromycin]
B-score binding assay (human NTCP [1]; [9]): 0.93
B-score functional assay (human NTCP [2]; [10]): 3.026
Ranking score (human NTCP [2]; [11]): 1129.71

COC(=O)CCc1ccc(OCC(O)CNC(C)C)cc1 (stereo not drawn) [Esmolol hydrochloride]
B-score binding assay (human NTCP [1]; [9]): 1.099
B-score functional assay (human NTCP [2]; [10]): 0.736
Ranking score (human NTCP [2]; [11]): 1025.92

CCCCC(=O)O[C@H]1CC[C@H]2[C@@H]3CCc4cc(O)ccc4[C@H]3CC[C@]12C [Estradiol Valerate]
B-score binding assay (human NTCP [1]; [3]): 1.969
B-score functional assay (human NTCP [2]; [4]): -0.153
Ranking score (human NTCP [2]; [5]): 776.511

C[C@]12CC[C@@H]3c4ccc(O)cc4CC[C@H]3[C@@H]1CCC2=O [Estrone]
B-score binding assay (human NTCP [1]; [9]): 0.944
B-score functional assay (human NTCP [2]; [10]): 0.06
Ranking score (human NTCP [2]; [11]): 855.9

O=C(Cn1ccnc1[N+](=O)[O-])NCCO [Etanidazole]
B-score binding assay (human NTCP [1]; [3]): 0.108
B-score functional assay (human NTCP [2]; [4]): -0.015
Ranking score (human NTCP [2]; [5]): 680.728

C=C(CC)C(=O)c1ccc(OCC(=O)O)c(Cl)c1Cl [Ethacrynic acid]
B-score binding assay (human NTCP [1]; [9]): 0.672
B-score functional assay (human NTCP [2]; [10]): 0.935
Ranking score (human NTCP [2]; [11]): 1005.99

O=S(=O)(O)c1cc(O)ccc1O [Ethamsylate]
B-score binding assay (human NTCP [1]; [9]): 1.4
B-score functional assay (human NTCP [2]; [10]): 0.032
Ranking score (human NTCP [2]; [11]): 873.696

CCOc1ccc(Cc2nccc3cc(OCC)c(OCC)cc23)cc1OCC [Ethaverine hydrochloride]
B-score binding assay (human NTCP [1]; [9]): 1.651
B-score functional assay (human NTCP [2]; [10]): 0.024
Ranking score (human NTCP [2]; [11]): 885.91

C#C[C@]1(O)CC[C@H]2[C@@H]3CCC4=CC(=O)CC[C@]4(C)[C@H]3CC[C@@]21C [Ethisterone]
B-score binding assay (human NTCP [1]; [3]): 2.018
B-score functional assay (human NTCP [2]; [4]): -0.564
Ranking score (human NTCP [2]; [5]): 653.06

CCN(CC)C(C)CN1c2ccccc2Sc2ccccc21 (stereo not drawn) [Ethopropazine hydrochloride]
B-score binding assay (human NTCP [1]; [3]): -0.236
B-score functional assay (human NTCP [2]; [4]): 0.753
Ranking score (human NTCP [2]; [5]): 687.443

CCC1(C)CC(=O)NC1=O (stereo not drawn) [Ethosuximide]
B-score binding assay (human NTCP [1]; [9]): 0.697
B-score functional assay (human NTCP [2]; [10]): 1.817
Ranking score (human NTCP [2]; [11]): 1070.41

CCN1C(=O)NC(c2ccccc2)C1=O (stereo not drawn) [Ethotoin]
B-score binding assay (human NTCP [1]; [9]): 0.936
B-score functional assay (human NTCP [2]; [10]): 3.216
Ranking score (human NTCP [2]; [11]): 1133.18
